In patent EP0316117A1 (priority 1987, dated 1989):

How the values were obtained:
Sendai virus = Sendai virus assay (method as described for Parainfluenza); format: cell-based; conditions: reduction in the virus titer compared to control
Parainfluenza virus = Parainfluenza virus pre-incubated with compound, grown in fertilized hen eggs, hemagglutination read-out; format: cell-based; parameters: key: -: undetectable; ++++: indicative of hemagglutination produced by virus grown under control conditions
Procedure: The effectiveness of certain novel compounds was tested against Parainfluenza virus which was grown in fertilized hen eggs as determined by the method of Haywood, J. of Mol. Biol., 83, 427 (1974). The virus was at titer of 10^5 to 10^6 was incubated in the presence of 10 ug/ml or 100 u^g/ml of one of the four compounds at 37° C for 2 hours. The mixtures of the virus and anti-viral compound were diluted to a final concentration of 10-^7 then injected into 9-day old fertilized hen eggs using 5 to 6 eggs for each dilution and incubated at 37° C for 48 hours. After the incubation period, a drop of amniotic fluid from the eggs was put on mirror-glass and mixed with 2% washed hen erythrocytes. Appearance of hemagglutination indicated the presence of virus in the egg. LDso was calculated from the results. The following Table 1 presents the results that were obtained. The virus concentrations ranged from -(undetectable) to + + + + (indicative of hemagglutination produced by virus grown under control conditions).

[1] = compound 100 µg/ml, Virus Concentrations 10
[2] = compound 100 µg/ml, Virus Concentrations 10^2
[3] = compound 100 µg/ml, Virus Concentrations 10^3

Row | Substance | Virus Titer Reduction (Sendai virus; 1µg/ml) | Virus Titer Reduction (Sendai virus; 10µg/ml) | Virus Titer Reduction (Sendai virus; 50µg/ml) | Virus Titer Reduction (Sendai virus; 100µg/ml) | hemagglutination (presence of virus in the egg) (Parainfluenza virus; compound 10 µg/ml, Virus Concentrations 10^4) | hemagglutination (presence of virus in the egg) (Parainfluenza virus; [1]) | hemagglutination (presence of virus in the egg) (Parainfluenza virus; [2]) | hemagglutination (presence of virus in the egg) (Parainfluenza virus; compound 10 µg/ml, Virus Concentrations 10) | hemagglutination (presence of virus in the egg) (Parainfluenza virus; compound 10 µg/ml, Virus Concentrations 10^2) | hemagglutination (presence of virus in the egg) (Parainfluenza virus; [3])
1 | N-(1,1-dimethyl 3-oxybutyl phosphatidyl ethanolamine [DMOB-PE] | less than 10% | ranged from 75-99% | ranged from 90-93% | 100% (virus undetectable) | ++++ | - | - |  |  | 
2 | 5-Schiff Base of PE and Menadione (Vitamin K3) [PE-M] |  |  |  |  |  | - | - | - | - | -
3 | 4-N-Acetyl phosphatidylethanolamine [A-PE] | about 50% | ranged from 75-95% | ranged from 90-99% | 100% (virus undetectable) |  |  |  |  |  | 
4 | Phosphatidyl benzyl alcohol [P-BA] |  |  |  |  |  | - | - |  |  | -
